In patent US10844032B2, “Substituted benzofuran, benzothiophene and indole Mcl-1 inhibitors” (Vanderbilt University, priority 2012, dated 2020):

molecular target: recombinant Mcl-1 (residues 172-327) (Homo sapiens (Human), UniProt Q07820); test: Bak peptide fluorescence polarization anisotropy competition assay, Mcl-1; format: binding; conditions: Table 2, Ki range; FITC-Bak peptide 10 nM, Mcl-1 14 nM; read-out: Ki for inhibition of Mcl-1
Sequence (Q07820 172-327): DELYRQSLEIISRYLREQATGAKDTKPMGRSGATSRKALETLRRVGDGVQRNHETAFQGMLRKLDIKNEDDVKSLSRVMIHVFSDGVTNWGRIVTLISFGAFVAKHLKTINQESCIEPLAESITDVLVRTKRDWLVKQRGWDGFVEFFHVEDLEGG

Row | Ki [nM] | SMILES
1 | ≤ 100 | Cc1cc(OCCCc2c(C(=O)NS(=O)(=O)c3ccccc3)[nH]c3c(-c4c(C)noc4C)cccc23)cc(C)c1Cl [Example 88, 3-(3-(4-chloro-3,5-dimethylphenoxy)propyl)-7-(3,5-dimethylisoxazol-4-yl)-N-(phenylsulfonyl)-1H-indole-2-carboxamide]
2 | ≤ 100 | Cc1ccsc1-c1cccc2c(CCCOc3cc(C)c(Cl)c(C)c3)c(C(=O)NS(=O)(=O)c3ccccc3)[nH]c12 [Example 99, 3-(3-(4-chloro-3,5-dimethylphenoxy)propyl)-7-(3-methylthiophen-2-yl)-N-(phenylsulfonyl)-1H-indole-2-carboxamide]
3 | ≤ 100 | Cc1cc(OCCCc2c(C(=O)NS(C)(=O)=O)[nH]c3cccc(Br)c23)cc(C)c1Cl [Example 113, 4-bromo-3-(3-(4-chloro-3,5-dimethylphenoxy)propyl)-N-(methylsulfonyl)-1H-indole-2-carboxamide]
4 | ≤ 100 | Cc1cc(OCCCc2c(C(=O)NS(=O)(=O)c3ccccc3)[nH]c3c(-c4ccnn4C)cccc23)cc(C)c1Cl [Example 100, 3-(3-(4-chloro-3,5-dimethylphenoxy)propyl)-7-(1-methyl-1H-pyrazol-5-yl)-N-(phenylsulfonyl)-1H-indole-2-carboxamide]
5 | ≤ 100 | Cc1cc(OCCCc2c(C(=O)NS(=O)(=O)c3ccccc3)[nH]c3c(-c4c(CO)nn(C)c4C)cccc23)cc(C)c1Cl [Example 127, 3-(3-(4-chloro-3,5-dimethylphenoxy)propyl)-7-(3-(hydroxymethyl)-1,5-dimethyl-1H-pyrazol-4-yl)-N-(phenylsulfonyl)-1H-indole-2-carboxamide]

same assay, conditions: read-out: Ki for inhibition of Mcl-1

Row | Ki [nM] | SMILES
6 | 101 to 299 | CCC(=O)NCCS(=O)(=O)NC(=O)c1[nH]c2cc(Cl)ccc2c1CCCOc1cc(C)c(Cl)c(C)c1 [Example 252, 6-chloro-3-(3-(4-chloro-3,5-dimethylphenoxy)propyl)-N-((2-propionamidoethyl)sulfonyl)-1H-indole-2-carboxamide]
7 | 1000 to 9990 | Cc1cc(OCCCc2c(C(=O)NS(=O)(=O)CCNC(=O)c3ccncc3)[nH]c3ccccc23)cc(C)c1Cl [Example 153, 3-(3-(4-chloro-3,5-dimethylphenoxy)propyl)-N-((2-(isonicotinamido)ethyl)sulfonyl)-1H-indole-2-carboxamide]
8 | 101 to 299 | Cc1cc(OCCCc2c(C(=O)NS(=O)(=O)CCNC(=O)Cc3cn(C)c4ccccc34)[nH]c3cc(Cl)ccc23)cc(C)c1Cl [Example 235, 6-chloro-3-(3-(4-chloro-3,5-dimethylphenoxy)propyl)-N-((2-(2-(1-methyl-1H-indol-3-yl)acetamido)ethyl)sulfonyl)-1H-indole-2-carboxamide]
9 | 101 to 299 | Cc1cc(OCCCc2c(C(=O)NS(=O)(=O)CCNC(=O)c3ccc4[nH]ccc4c3)[nH]c3ccccc23)cc(C)c1Cl [Example 178, N-((2-(1H-indole-5-carboxamido)ethyl)sulfonyl)-3-(3-(4-chloro-3,5-dimethylphenoxy)propyl)-1H-indole-2-carboxamide]
10 | 1000 to 9990 | O=C(NS(=O)(=O)C1CC1)c1sc2ccccc2c1CCCOc1cccc2ccccc12 [Example 67, N-(cyclopropylsulfonyl)-3-(3-(naphthalen-1-yloxy)propyl)benzo[b]thiophene-2-carboxamide]
11 | 101 to 299 | Cc1cc(OCCCc2c(C(=O)NS(=O)(=O)CCNS(=O)(=O)c3ccccc3)[nH]c3ccccc23)cc(C)c1Cl [Example 146, 3-(3-(4-chloro-3,5-dimethylphenoxy)propyl)-N-((2-(phenylsulfonamido)ethyl)sulfonyl)-1H-indole-2-carboxamide]
12 | 301 to 500 | Cc1cc(OCCCc2c(C(=O)NS(=O)(=O)CCNC(=O)NC3CCCCC3)[nH]c3ccccc23)cc(C)c1Cl [Example 199, 3-(3-(4-chloro-3,5-dimethylphenoxy)propyl)-N-((2-(3-cyclohexylureido)ethyl)sulfonyl)-1H-indole-2-carboxamide]
13 | 301 to 500 | Cc1cc(OCCCc2c(C(=O)NS(C)(=O)=O)[nH]c3cc(Cl)ccc23)ccc1Cl [Example 53, 6-chloro-3-(3-(4-chloro-3-methylphenoxy)propyl)-N-(methylsulfonyl)-1H-indole-2-carboxamide]
14 | 1000 to 9990 | Cc1cc(OCCCc2c(C(=O)NS(=O)(=O)CCNC(=O)c3cn[nH]c3)[nH]c3ccccc23)cc(C)c1Cl [Example 182, N-((2-(1H-pyrazole-4-carboxamido)ethyl)sulfonyl)-3-(3-(4-chloro-3,5-dimethylphenoxy)propyl)-1H-indole-2-carboxamide]
15 | 1000 to 9990 | Cc1cc(OCCCc2c(C(=O)NS(=O)(=O)CCNC(=O)c3ccn[nH]3)[nH]c3ccccc23)cc(C)c1Cl [Example 181, N-((2-(1H-pyrazole-5-carboxamido)ethyl)sulfonyl)-3-(3-(4-chloro-3,5-dimethylphenoxy)propyl)-1H-indole-2-carboxamide]
16 | 301 to 500 | Cc1cc(OCCCc2c(C(=O)NS(=O)(=O)c3ccc(OCc4ccccc4)cc3)[nH]c3cc(Cl)ccc23)cc(C)c1Cl [Example 224, N-((4-(benzyloxy)phenyl)sulfonyl)-6-chloro-3-(3-(4-chloro-3,5-dimethylphenoxy)propyl)-1H-indole-2-carboxamide]
17 | 301 to 500 | Cc1cc(OCCCc2c(C(=O)NS(=O)(=O)CCNC(=O)C3CCCCC3)[nH]c3cccc(Cl)c23)cc(C)c1Cl [Example 208, 4-chloro-3-(3-(4-chloro-3,5-dimethylphenoxy)propyl)-N-((2-(cyclohexanecarboxamido)ethyl)sulfonyl)-1H-indole-2-carboxamide]
18 | 1000 to 9990 | Cc1cc(OCCCc2c(C(=O)NS(=O)(=O)CCCNC3CCCCC3)[nH]c3ccccc23)cc(C)c1Cl [Example 145, 3-(3-(4-chloro-3,5-dimethylphenoxy)propyl)-N-((3-(cyclohexylamino)propyl)sulfonyl)-1H-indole-2-carboxamide]
19 | 301 to 500 | Cc1cc(OCCCc2c(C(=O)NS(=O)(=O)c3ccc(Oc4ccccc4)cc3)[nH]c3ccccc23)cc(C)c1Cl [Example 132, 3-(3-(4-chloro-3,5-dimethylphenoxy)propyl)-N-((4-phenoxyphenyl)sulfonyl)-1H-indole-2-carboxamide]
20 | 1000 to 9990 | Cc1cc(OCCCc2c(C(=O)NS(C)(=O)=O)[nH]c3c(C)c(Br)ccc23)cc(C)c1Cl [Example 120, 6-bromo-3-(3-(4-chloro-3,5-dimethylphenoxy)propyl)-7-methyl-N-(methylsulfonyl)-1H-indole-2-carboxamide]
21 | 301 to 500 | CS(=O)(=O)NC(=O)c1[nH]c2cc(C(F)(F)F)ccc2c1CCCOc1cccc2ccccc12 [Example 79, N-(methylsulfonyl)-3-(3-(naphthalen-1-yloxy)propyl)-6-(trifluoromethyl)-1H-indole-2-carboxamide]
22 | 301 to 500 | Cc1cc(OCCCc2c(C(=O)NS(=O)(=O)CC3CCN(C(=O)c4cccn4C)CC3)[nH]c3ccccc23)cc(C)c1Cl [Example 211, 3-(3-(4-chloro-3,5-dimethylphenoxy)propyl)-N-(((1-(1-methyl-1H-pyrrole-2-carbonyl)piperidin-4-yl)methyl)sulfonyl)-1H-indole-2-carboxamide]
23 | 101 to 299 | Cc1cc(OCCCc2c(C(=O)NS(=O)(=O)CCNC(=O)CCc3ccccc3)[nH]c3ccccc23)cc(C)c1Cl [Example 164, 3-(3-(4-chloro-3,5-dimethylphenoxy)propyl)-N-((2-(3-phenylpropanamido)ethyl)sulfonyl)-1H-indole-2-carboxamide]
